The results in this text go back to ChEMBL document CHEMBL5465560, “Selectivity Literature for EUbOPEN Chemogenomic Library” (2024).

Test [1] has as its target T1, Mitogen-activated protein kinase kinase kinase 6 (Homo sapiens) (UniProt O95382).
T1 sequence (whole entry): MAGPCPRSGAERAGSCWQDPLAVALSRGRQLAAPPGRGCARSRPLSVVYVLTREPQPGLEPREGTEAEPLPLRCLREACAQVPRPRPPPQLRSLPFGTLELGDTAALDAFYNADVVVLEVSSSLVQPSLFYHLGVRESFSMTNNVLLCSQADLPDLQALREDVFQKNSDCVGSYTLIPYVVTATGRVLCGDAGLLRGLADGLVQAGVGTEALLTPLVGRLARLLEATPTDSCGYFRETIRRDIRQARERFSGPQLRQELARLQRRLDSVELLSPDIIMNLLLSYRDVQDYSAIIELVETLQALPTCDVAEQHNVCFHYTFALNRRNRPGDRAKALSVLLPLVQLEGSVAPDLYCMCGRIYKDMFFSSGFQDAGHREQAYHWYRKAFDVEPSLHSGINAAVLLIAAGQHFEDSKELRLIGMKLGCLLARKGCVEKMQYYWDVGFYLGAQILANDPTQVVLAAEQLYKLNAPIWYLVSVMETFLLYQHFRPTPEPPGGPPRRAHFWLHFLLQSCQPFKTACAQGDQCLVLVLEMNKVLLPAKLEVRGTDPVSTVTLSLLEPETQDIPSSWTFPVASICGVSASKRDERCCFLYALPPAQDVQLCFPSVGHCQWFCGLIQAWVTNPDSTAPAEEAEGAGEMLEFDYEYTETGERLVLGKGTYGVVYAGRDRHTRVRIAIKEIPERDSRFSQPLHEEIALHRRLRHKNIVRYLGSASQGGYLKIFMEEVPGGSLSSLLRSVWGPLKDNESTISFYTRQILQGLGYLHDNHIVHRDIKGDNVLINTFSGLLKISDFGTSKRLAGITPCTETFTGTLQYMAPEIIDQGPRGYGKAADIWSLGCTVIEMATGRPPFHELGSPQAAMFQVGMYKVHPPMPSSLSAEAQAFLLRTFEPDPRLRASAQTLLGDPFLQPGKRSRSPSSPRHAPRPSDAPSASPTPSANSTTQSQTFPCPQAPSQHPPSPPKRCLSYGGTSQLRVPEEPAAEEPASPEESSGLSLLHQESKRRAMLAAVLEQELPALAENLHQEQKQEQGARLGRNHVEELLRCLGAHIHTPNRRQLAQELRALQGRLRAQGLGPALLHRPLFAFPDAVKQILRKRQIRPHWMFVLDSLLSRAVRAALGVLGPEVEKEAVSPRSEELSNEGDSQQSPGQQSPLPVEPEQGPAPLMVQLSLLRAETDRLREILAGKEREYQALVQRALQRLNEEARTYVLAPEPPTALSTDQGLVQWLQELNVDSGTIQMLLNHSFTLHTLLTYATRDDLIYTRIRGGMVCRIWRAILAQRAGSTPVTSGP
As to the kind of experiment: Selectivity interaction (KinomeScan (DiscoverX)) EUB0001619a MAP3K6. The settings on record: at 1 µM.

Test [2] addresses Dual specificity tyrosine-phosphorylation-regulated kinase 1B (Homo sapiens, UniProt Q9Y463). Kind of test: Selectivity interaction (SelectScreen profiling (Invitrogen)) EUB0000607a DYRK1B. The conditions noted are these: at 2 µM.
In test [3] the target is Tyrosine-protein kinase JAK1 (Homo sapiens, UniProt P23458). The settings on record: at 10 µM.
For test [4], the target named is T2, Myotonin-protein kinase (Homo sapiens) (UniProt Q09013).
T2 sequence (whole entry): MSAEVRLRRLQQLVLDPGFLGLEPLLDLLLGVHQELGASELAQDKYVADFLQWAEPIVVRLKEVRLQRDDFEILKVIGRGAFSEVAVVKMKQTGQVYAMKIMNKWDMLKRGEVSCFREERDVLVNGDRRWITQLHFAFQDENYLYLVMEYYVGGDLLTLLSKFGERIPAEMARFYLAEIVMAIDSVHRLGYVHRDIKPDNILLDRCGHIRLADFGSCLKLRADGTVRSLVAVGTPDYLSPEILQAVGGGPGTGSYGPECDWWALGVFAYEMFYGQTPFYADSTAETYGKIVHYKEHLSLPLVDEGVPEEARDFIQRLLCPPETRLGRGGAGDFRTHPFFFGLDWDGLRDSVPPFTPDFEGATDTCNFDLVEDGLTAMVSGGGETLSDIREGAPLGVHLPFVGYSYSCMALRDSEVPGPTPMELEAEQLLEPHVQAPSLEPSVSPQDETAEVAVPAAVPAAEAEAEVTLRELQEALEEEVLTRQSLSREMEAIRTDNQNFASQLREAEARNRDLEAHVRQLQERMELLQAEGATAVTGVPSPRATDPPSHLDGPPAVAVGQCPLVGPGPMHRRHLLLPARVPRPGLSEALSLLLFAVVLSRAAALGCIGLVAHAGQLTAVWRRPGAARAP
Kind of test: Selectivity interaction (KinomeScan (DiscoverX)) EUB0000618a DMPK. The settings on record: at 10 µM.

Test [5] has as its target T3, Tyrosine-protein kinase Mer (Homo sapiens) (UniProt Q12866).
T3 sequence (whole entry): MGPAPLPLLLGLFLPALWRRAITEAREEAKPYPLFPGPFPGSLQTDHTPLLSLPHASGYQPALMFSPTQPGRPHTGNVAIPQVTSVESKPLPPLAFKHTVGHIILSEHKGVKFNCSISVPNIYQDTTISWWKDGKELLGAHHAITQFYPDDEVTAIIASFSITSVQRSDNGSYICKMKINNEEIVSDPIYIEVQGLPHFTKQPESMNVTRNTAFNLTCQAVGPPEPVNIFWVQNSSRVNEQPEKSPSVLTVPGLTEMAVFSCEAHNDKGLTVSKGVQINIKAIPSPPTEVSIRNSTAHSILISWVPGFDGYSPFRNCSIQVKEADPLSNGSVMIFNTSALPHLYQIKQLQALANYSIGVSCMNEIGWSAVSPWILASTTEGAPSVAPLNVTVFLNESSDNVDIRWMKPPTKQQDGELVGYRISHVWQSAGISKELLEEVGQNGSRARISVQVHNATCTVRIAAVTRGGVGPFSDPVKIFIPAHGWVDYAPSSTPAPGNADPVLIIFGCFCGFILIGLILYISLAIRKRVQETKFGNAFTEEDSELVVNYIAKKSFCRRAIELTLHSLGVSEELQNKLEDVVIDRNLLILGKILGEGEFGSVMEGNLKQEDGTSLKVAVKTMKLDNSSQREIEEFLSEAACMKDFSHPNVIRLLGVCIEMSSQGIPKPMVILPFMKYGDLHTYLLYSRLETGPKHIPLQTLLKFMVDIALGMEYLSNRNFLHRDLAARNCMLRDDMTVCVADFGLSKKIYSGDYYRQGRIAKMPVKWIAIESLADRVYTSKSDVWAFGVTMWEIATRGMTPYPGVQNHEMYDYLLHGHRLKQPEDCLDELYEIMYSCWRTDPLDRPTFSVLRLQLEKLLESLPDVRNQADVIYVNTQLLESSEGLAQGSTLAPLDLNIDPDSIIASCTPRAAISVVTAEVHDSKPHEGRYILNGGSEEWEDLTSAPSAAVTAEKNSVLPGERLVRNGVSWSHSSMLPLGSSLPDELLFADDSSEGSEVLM
Kind of test: Selectivity interaction (KinomeScan (DiscoverX)) EUB0000092b MERTK. The conditions noted are these: at 10 µM.

Sequence of Tyrosine-protein kinase JAK1 (P23458 whole entry): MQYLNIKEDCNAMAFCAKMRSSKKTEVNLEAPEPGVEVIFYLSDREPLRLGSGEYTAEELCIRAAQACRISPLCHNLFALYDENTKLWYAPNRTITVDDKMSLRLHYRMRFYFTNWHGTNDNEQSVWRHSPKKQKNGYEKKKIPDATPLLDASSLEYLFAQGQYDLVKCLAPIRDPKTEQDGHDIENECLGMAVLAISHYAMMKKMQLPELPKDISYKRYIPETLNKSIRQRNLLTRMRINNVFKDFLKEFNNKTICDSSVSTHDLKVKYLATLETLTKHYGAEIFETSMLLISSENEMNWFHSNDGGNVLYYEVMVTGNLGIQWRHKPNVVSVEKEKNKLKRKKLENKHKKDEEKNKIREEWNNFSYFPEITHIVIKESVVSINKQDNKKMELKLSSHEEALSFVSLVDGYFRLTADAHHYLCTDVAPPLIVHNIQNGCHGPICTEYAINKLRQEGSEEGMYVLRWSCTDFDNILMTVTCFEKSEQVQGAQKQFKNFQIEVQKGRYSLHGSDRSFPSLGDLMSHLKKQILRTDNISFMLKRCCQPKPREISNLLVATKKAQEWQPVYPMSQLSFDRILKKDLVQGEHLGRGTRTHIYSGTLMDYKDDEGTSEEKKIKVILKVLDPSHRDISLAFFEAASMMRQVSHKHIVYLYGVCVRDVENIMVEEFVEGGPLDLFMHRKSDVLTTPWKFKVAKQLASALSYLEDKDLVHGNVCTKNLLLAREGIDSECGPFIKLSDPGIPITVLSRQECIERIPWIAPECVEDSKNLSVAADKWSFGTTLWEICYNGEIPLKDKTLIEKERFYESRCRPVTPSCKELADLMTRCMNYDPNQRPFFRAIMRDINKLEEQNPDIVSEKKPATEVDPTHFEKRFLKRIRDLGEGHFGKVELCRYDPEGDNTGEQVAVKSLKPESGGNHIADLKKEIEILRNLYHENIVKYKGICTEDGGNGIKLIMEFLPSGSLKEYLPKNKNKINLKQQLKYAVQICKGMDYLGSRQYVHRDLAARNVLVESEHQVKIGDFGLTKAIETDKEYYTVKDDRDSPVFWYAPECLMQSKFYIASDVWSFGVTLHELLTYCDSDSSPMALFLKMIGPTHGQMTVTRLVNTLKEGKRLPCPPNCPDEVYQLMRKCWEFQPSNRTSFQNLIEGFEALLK
Sequence of Dual specificity tyrosine-phosphorylation-regulated kinase 1B (Q9Y463 whole entry, looked up): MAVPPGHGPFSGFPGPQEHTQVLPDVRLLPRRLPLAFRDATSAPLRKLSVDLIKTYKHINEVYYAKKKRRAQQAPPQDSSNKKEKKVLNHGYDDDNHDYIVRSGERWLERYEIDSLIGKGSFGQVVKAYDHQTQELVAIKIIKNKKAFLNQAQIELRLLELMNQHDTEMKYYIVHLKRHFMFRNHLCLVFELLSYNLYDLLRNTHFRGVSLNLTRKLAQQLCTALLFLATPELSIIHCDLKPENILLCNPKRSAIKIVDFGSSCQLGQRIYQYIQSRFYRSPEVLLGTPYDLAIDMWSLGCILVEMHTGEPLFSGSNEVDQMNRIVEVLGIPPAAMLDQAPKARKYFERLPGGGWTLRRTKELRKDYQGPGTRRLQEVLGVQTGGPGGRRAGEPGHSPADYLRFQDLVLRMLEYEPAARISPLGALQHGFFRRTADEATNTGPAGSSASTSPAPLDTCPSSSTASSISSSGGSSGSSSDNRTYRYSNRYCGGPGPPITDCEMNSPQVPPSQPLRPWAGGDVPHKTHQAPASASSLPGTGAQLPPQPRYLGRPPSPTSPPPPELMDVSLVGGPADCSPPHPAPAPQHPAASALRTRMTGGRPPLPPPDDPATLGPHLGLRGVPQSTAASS

The compound `N#Cc1cccc(-c2c[nH]c3ncnc(N4CCOCC4)c23)c1` displayed a % of control in test [1] of 57%.
The compound `CNC(=O)Nc1ccc(-c2nc(N3CC4CCC(C3)O4)c3cnn(C4CCC5(CC4)OCCO5)c3n2)cc1` showed a % of inhibition in test [2] of 2%.
Take `Cc1cc([C@@H](C)Nc2ccccc2C(=O)O)c2nc(N3CCOCC3)cc(=O)n2c1` [AZD-6482]: the % of control in test [3] was 100%.
For the compound `O[C@H]1CC[C@H](Nc2ncc3nc(Nc4c(F)cc(F)cc4F)n([C@H]4CCOC4)c3n2)CC1`, the % of control in test [4] is 100%.
Compound `CCC(=O)N1CCN(c2ccc(-n3c(=O)ccc4cnc5ccc(-c6cnc7ccccc7c6)cc5c43)cc2C(F)(F)F)CC1` returned a % of control in test [5] of 53%.
